Laboratory results taken from patent US11730769B2, “Compositions and methods for Williams Syndrome (WS) therapy” (MASSACHUSETTS INSTITUTE OF TECHNOLOGY, priority 2017, dated 2023).
pEC50: −log10 of the molar value. Entries after “also recorded” stand apart in the source; their conditions may differ. Like-named read-outs stand apart in the source and are kept apart here.

Columns and labels:
[1] = cited from earlier work
[2] = cited from earlier work; remark: listed apart in the source
N-type calcium channels = N-type calcium channels (Homo sapiens, UniProt Q00975); details: read-out: EC50 for activation of N-type calcium channels; cited from earlier work
[3] = molecular target: P/Q-type calcium channels (Homo sapiens, UniProt O00555); details: read-out: EC50 for activation of P/Q-type calcium channels; cited from earlier work
Chain of P/Q-type calcium channels (O00555 whole entry): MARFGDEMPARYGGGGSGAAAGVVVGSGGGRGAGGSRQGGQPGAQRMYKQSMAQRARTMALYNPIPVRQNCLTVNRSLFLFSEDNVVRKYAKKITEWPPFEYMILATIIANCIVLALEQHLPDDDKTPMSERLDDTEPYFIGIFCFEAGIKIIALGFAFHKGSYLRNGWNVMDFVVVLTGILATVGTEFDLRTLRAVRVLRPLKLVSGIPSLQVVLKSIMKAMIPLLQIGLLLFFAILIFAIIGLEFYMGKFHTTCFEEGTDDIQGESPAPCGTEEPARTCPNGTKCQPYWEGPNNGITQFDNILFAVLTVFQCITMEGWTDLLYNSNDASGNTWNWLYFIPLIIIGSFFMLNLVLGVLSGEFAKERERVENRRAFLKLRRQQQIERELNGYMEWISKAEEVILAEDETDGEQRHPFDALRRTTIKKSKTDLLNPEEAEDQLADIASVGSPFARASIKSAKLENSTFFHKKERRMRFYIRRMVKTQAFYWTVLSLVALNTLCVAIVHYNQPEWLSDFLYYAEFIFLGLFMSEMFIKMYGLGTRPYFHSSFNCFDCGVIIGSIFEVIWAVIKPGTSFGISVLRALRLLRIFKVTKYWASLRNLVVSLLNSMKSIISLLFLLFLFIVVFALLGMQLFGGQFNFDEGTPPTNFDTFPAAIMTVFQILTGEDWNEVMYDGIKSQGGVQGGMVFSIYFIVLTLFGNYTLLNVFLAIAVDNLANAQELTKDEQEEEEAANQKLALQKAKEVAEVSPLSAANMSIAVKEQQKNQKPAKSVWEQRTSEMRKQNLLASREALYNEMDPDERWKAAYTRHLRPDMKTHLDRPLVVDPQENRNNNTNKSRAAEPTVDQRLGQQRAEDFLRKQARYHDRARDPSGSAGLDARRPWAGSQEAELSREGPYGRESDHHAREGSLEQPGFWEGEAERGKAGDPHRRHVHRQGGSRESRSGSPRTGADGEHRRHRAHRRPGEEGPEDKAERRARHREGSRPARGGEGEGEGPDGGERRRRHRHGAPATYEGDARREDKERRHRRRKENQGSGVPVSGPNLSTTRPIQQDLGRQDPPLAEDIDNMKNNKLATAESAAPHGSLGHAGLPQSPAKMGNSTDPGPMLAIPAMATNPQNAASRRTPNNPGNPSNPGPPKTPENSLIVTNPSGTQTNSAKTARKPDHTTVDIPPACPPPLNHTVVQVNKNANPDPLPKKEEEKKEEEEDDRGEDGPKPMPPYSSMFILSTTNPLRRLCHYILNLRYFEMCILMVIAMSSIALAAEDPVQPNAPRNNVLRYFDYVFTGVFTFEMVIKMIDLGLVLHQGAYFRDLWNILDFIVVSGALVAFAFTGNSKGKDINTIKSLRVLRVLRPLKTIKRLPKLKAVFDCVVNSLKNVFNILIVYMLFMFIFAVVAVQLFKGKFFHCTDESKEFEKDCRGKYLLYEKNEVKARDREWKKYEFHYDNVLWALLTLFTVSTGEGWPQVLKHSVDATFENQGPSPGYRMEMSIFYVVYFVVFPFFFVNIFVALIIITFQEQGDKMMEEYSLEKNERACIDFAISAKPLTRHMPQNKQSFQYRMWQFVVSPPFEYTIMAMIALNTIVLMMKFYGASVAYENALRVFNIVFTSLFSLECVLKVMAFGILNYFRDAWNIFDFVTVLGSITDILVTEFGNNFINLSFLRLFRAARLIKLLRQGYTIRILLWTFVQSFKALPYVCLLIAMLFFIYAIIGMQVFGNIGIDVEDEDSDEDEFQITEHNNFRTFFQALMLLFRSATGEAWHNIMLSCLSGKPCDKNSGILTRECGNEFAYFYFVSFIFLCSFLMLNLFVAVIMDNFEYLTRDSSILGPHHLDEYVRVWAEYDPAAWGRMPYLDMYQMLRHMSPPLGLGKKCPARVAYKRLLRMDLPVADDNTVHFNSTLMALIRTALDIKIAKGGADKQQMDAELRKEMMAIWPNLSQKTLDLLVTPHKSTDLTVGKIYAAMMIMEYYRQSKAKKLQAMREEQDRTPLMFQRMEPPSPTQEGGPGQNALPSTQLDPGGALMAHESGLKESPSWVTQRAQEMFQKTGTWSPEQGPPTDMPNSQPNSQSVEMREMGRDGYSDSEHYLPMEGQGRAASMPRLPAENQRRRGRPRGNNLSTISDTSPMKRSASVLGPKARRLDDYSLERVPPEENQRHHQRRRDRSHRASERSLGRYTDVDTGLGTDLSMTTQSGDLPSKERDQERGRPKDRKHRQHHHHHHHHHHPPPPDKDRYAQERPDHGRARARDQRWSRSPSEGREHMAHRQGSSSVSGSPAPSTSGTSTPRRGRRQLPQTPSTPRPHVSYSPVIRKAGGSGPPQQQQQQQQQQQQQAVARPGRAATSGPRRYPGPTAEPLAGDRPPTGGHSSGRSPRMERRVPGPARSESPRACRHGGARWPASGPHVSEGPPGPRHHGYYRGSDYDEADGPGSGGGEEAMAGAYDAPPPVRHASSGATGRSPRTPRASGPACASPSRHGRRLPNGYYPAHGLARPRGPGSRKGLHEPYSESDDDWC
Chain of P/Q-type calcium channels (P54284 whole entry partner): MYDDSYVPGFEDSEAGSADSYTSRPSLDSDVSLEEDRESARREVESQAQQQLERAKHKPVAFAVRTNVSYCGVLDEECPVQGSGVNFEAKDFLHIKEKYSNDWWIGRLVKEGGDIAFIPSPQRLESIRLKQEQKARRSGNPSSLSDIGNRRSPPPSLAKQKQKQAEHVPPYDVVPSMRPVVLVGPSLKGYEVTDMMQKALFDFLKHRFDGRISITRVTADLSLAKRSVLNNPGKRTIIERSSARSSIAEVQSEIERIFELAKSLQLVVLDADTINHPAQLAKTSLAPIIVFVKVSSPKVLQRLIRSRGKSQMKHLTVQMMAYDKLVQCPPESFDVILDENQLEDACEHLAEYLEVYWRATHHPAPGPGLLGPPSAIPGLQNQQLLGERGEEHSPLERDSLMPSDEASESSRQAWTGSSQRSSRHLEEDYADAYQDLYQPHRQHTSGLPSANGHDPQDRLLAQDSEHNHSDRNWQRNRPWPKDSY
Chain of P/Q-type calcium channels (P54289 25-946 partner limits assumed): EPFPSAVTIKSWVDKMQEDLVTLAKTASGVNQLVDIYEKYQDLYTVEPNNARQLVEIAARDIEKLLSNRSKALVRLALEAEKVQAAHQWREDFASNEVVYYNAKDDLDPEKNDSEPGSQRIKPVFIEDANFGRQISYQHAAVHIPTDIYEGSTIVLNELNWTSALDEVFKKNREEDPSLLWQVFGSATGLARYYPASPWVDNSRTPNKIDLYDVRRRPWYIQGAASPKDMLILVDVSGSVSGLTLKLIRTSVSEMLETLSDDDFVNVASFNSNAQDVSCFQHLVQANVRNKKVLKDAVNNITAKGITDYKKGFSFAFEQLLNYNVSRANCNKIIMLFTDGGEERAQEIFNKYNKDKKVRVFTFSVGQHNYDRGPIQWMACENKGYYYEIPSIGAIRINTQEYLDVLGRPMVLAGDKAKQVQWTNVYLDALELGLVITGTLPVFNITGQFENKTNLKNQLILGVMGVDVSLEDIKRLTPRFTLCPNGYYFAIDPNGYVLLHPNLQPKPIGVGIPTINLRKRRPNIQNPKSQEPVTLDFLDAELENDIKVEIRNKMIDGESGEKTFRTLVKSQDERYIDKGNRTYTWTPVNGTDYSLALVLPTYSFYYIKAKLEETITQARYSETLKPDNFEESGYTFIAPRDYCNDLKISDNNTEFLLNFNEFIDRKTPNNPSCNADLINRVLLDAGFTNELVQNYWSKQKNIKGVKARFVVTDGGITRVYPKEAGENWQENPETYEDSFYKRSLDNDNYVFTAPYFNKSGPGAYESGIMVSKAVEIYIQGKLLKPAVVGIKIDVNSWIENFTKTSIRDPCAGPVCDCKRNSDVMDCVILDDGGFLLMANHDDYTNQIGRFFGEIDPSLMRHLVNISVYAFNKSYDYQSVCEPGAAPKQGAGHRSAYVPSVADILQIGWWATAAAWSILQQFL
Chain of P/Q-type calcium channels (P54289 947-1103 partner limits assumed): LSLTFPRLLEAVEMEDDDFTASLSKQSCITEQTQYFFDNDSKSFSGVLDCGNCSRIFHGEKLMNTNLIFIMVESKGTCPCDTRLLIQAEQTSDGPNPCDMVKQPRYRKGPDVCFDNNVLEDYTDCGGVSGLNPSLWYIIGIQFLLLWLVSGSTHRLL

L-type calcium channels = details: read-out: EC50 for activation of L-type calcium channels; cited from earlier work
[4] = in vivo; cited from earlier work
Gtf2i cKO mice [5] = test: Intra-cortical microstimulation (ICMS) and EMG recording (corticospinal output); assay type: in vivo; details: acute 4-AP 2 mg/kg i.p., test 30 to 60 minutes after injection; cKO and control mice
Experimental: ICMS and EMG recording protocol was adopted from previous studies (71, 72). Each animal was anesthetized with ketamine-xylazine (100 mg/kg ketamine, 10 mg/kg xylazine, i.p.). Anesthesia level was maintained at a steady level to that animal was unresponsive to toe pinch while muscle tone was present.
A digital stereotaxic frame was used to mount the animal's head and guide stimulation electrode (stainless steel, 0.5 MOhm; World Precision Instruments) over an array of motor cortical sites (0.9 mm caudal and 0.6 mm rostral to Bregma, 0.9 mm to 1.8 mm lateral to midline, with 300 μm spacing between sites). Stimulation electrode was inserted into the cortex at 500 μm depth, targeting layer V motor neurons. The exposed brain area was immersed with silicon oil to avoid dehydration. Electrical stimulation (biphasic, 0.2 ms pulse width, 333 Hz, 45 ms) was adjusted between 100 to 300 μA and located at the position that has the lowest threshold to trigger EMG signal. Stimulation intensity of two folds of threshold was then used for EMG recording and analysis. To perform EMG recording, an incision was made on hindlimb to expose the muscles while fascia remained intact. […] EMG signals were acquired using differential AC amplifier (1700, A-M Systems, WA) with 10-1000 Hz bandpass filter, sampled at 5 kHz using a digitizer (Digidata 1440A, Axon Instruments), and analyzed by pClamp Software. […]

Gtf2i cKO mice [6] = test: Evoked field potential recordings in corpus callosum; assay type: in vivo; details: acute 4-AP administration
Experimental: In vivo evoked field potential recording in corpus callosum was referenced to that from in vitro studies (69, 70). Animals were anesthetized with urethane (1,000 mg/kg) and placed on a stereotaxic instrument. Body temperature was maintained by thermostat at 37.5-38° C. Craniotomy was performed and dura was kept intact. Stainless steel stimulation electrode (300˜500 kOhm, WPI) was positioned in corpus callosum in left hemisphere (1.5 mm posterior to Bregma, 1 mm lateral from midline, 1,000˜1,300 μm beneath cortical surface), and tungsten recording electrode (2˜3 MOhm, FHC) was positioned in corpus callosum at same coronal plane in right hemisphere (1.5 mm posterior to Bregma, 1 mm from midline, 1,000˜1,300 μm beneath cortical surface). Electrical stimulation (0˜200 uA, 0.2 ms pulse width, 0.2 Hz) was delivered while both positions of stimulation and recording electrodes were slightly adjusted to optimize signal. Signals were filtered at 0.1-3,000 Hz and gained at 1,000 times (Model 1700, A-M Systems), digitized and sampled at 10,000 Hz (Digidata 1440A, Molecular Devices), and analyzed offline (Clampfit). […] Response amplitude was determined by measuring the vertical distance from negative peak to the tangent joining preceding and following positivities. […]

Gtf2i cKO mice [7] = test: Horizontal ladder walking test; assay type: in vivo; details: acute 4-AP 1 mg/kg i.p., three hours post administration
Experimental: Mice were tested for their ability to walk on a horizontal ladder with irregularly spaced rungs, following the procedure described previously (44). Animals were trained to cross the ladder until their performance achieved the plateau (with a forelimb error of 20% or less). The irregular pattern was changed from trial to trial during training. All trials were video recorded with Hotshot e64 and paw placement was analyzed. The paw placement on rungs were categorized as Hit (platar contact and digits closure), Miss (paw falls between rungs) and Slip (imprecise contact with one or few digits). Experimenter was blinded to genotypes.
Mice were habituated to needle injections (i.p.) for three days before behavioral tests, by two i.p. injections of 200 μL of saline administered per day. […] All behavioral tests were therefore accomplished three hours post systemic administration. Saline-injected mice in each genotype (Control or cKO mice) were referred as the baseline group for the treatment group, which was injected with 4-AP. Experimenter was blinded to genotypes.

Gtf2i cKO mice [8] = test: Three-chamber social preference test; assay type: in vivo; details: acute 4-AP 1 mg/kg i.p., three hours post administration
Experimental: Stranger mice were wildtype S129 Sv males (Jackson Laboratory) with matched age and body weight to test mice. Stranger mice were habituated by placing them inside an inverted wire cup for 30 min, two sessions per day for three consecutive days before tests. Each stranger mouse was used a maximum of two times per day. The social test apparatus was made of a clear Plexiglas box (65 cm (L)×44 cm (W)×30 cm (H)) with a removable floor and partitions dividing the box into left, center, and right chambers. The center chamber (21 cm×22 cm) was half the width of the left and right chambers (each is 21 cm×44 cm). These three chambers were interconnected with 5 cm openings between each chamber that could be closed or opened manually with a lever-operated door. The inverted wire cups containing the stranger mice were cylindrical, 10 cm in height, with a bottom diameter of 10 cm and with metal bars spaced 0.8 cm apart. A weighted cup was placed on top of the inverted wire cups to prevent the test mice from climbing onto the wire cup. […] Then, experimenter blinded to genotypes analyzed for timespent in close proximity to the stranger mouse or object was analyzed using the Noldus Ethovison XT software. Social preference index was calculated as follows: (time in close interaction with stranger)/(time in close interaction with object). […]

Shaker channels = details: at concentration of 1 mM; cited from earlier work
[9] = tested on: normal adult myelinated axons; details: cited from earlier work
[10] = tested on: chronically injured spinal cord of guinea pigs; details: cited from earlier work
[11] = oral, non-sustained release, animals; cited from earlier work
[12] = cited from earlier work; remark: listed apart in the source
[13] = patients with MS, all studies; cited from earlier work
[14] = phosphate salt; does not require refrigeration; cited from earlier work
Gtf2i cKO mice [15] = test: Number of myelinating oligodendrocytes (immunofluorescence); assay type: in vivo; details: clemastine 10 mg/kg daily by gastric gavage for 14 days
Experimental: Basic immunofluorescence procedure was used as previously described (68). Mice were deeply anesthetized with isoflurane and transcardially perfused with 15 ml ice-cold PBS solution followed by 15 ml fresh ice-cold 4% paraformaldehyde (PFA) in PBS. Brains were dissected and kept in 4% PFA overnight at 4° C. and then sectioned at 100 μm thickness by vibratome (Leica). Floating brain slices were washed 3 times, 5 min each, with PBS and permeabilized with 1.2% Triton X-100 in PBS for 15 min at room temperature. Slices were then washed 3 times, 5 min each, followed by blocking with 5% normal goat serum, 2% BSA, 0.2% Triton X-100 in PBS for 1 h at room temperature. Primary antibodies diluted in blocking buffer were applied to sections overnight at 4° C. […]
To quantify cellular properties in the cortex, images were taken by an experimenter blinded to genotypes with a 10× magnification at the motor cortex area at bregma 0.5 mm. […] The midline of the CC was imaged at the same bregma, using a 40× magnification, and the whole depth of the CC was imaged by taking 10 images as part of a Z-stack serial imaging, and then all images were stacked together to a single image which was then analyzed for quantification. Cell numbers were quantified blindly with automation using ImageJ. […] The pixel intensity of H3ac and H3K9me3 was quantified using ImageJ, as was previously described (37). […]

socially isolated mice = details: cited from earlier work
rats = details: cited from earlier work

Compound: Nc1ccncc1N.O=P(O)(O)O [Amifampridine, pyridine-3,4-diamine]
- Time to maximum concentrations in blood plasma ([1]; 91 healthy subjects, after a fatty meal): 1.3 (±0.9) hours
- Time to maximum concentrations in blood plasma ([1]; 91 healthy subjects, without food): 0.6 (±0.25) hours
- Area under the curve (AUC) ([1]; 91 healthy subjects): 117 ± 77 ng·h/mL
- Biological half-life ([1]; 91 healthy subjects): 2.5±0.7 hrs
- AUC increase in slow metabolizers as compared to fast metabolizers ([1]; N-acetyltransferase activity): up to 9 fold
- Eliminated via kidneys and urine as N-acetylamifampridine ([1]; human, in vivo): 74-81%
- Eliminated via kidneys and urine in unchanged form ([1]; human, in vivo): 19%
- Absorbed from the gut ([1]; oral): 93-100%
- Solubility in water ([2]; 20° C.): 25 mg/mL
- Solubility in diethyl ether [2]: only slightly
- Solubility in methanol, ethanol and hot water [2]: readily soluble

Compound: CCCn1cnc2c(NCc3ccc(C)s3)nc(N[C@H](CC)CO)nc21 [GV-58]
- pEC50 (N-type calcium channels): 5.17
- pEC50 [3]: 5.00
- pEC50 (L-type calcium channels): < 4.00

Compound: CC[N+](CC)(CC)CC.[Br-] [TEA, Tetraethylammonium]
- Oral activity [4]: not orally active

Compound: Nc1ccncc1 [4-AP, 4-aminopyridine]
- EMG peak amplitude (cortico-spinal tract) (Gtf2i cKO mice [5]): increased significantly; also recorded: increased following 4-AP acute administration
- EMG response latency (cortico-spinal tract) (Gtf2i cKO mice [5]): significantly shortened; also recorded: significantly decreased and normalized to control levels
- Peak amplitude of evoked potential in corpus callosum (Gtf2i cKO mice [6]): increased following 4-AP acute administration and normalized to control levels
- Peak latency of evoked potential in corpus callosum (Gtf2i cKO mice [6]): significantly decreased and normalized to control levels
- Fine motor skills, horizontal irregular ladder walking, forelimb and hindlimb (Gtf2i cKO mice [7]): normalized fine motor skills; also recorded: rescued
- Social preference (index), three-chamber test (Gtf2i cKO mice [8]): normalized social preference; also recorded: decreased and normalized to control levels
- Inhibition of Shaker channels (Shaker channels): selectively and reversibly inhibits
- Concentrations causing gradual depolarization of the axon resting potential [9]: above 1 mM
- Concentrations at which the action potential shows little or no sensitivity ([9]; normal adult myelinated axons): below 100 μM
- Most effective concentration [10]: about 10 μM
- Time of peak plasma concentrations [11]: within one hour
- Cmax ([12]; 10 mg oral solution): 42.7 ng/mL
- Absorption from the gastrointestinal tract ([12]; oral): completely absorbed
- Absolute bioavailability ([12]; two formulations of IR tablets): 95%
- Incidence of adverse effects [13]: less than 5%

Compound: Nc1ccncc1N.O=P(O)(O)O [amifampridine phosphate, 4-aminopyridine-3-ylammonium dihydrogen phosphate]
- Solubility in water ([2]; phosphate salt): readily soluble in water
- Stability [14]: stable

Compound: CN1CCCC1CCOC(C)(c1ccccc1)c1ccc(Cl)cc1 (stereo not shown) [Clemastine]
- Number of myelinating oligodendrocytes (mOLs) in cortex and CC midline (Gtf2i cKO mice [15]): normalized
- Number of myelinating oligodendrocytes (mOLs) in cortex and CC midline (Gtf2i cKO mice [15]; listed as clemastine): significantly increased and normalized to control levels
- Impaired myelination (socially isolated mice; oral clemastine, prolonged social isolation): rescued
- Social avoidance behavior (socially isolated mice; oral, 2 weeks, adult mice following prolonged social isolation): successfully reverse social avoidance behavior

Compound: Opicinumab: fully human monoclonal antibody, LINGO-1 protein antagonist (Anti-Lingo-1)
- Remyelination (rats): 90%
